The text below walks through data of patent US5877174A, “2,3-diketopiperazine derivatives or their salts” (Toyama Chemical Co., Ltd., priority 1994, dated 1999).

Counter-ions that a name gives are not always drawn.

One data set has as its system ddY strain male mice. The data set can be described thus: Acute toxicity (intravenous, mice). Type of data set: in vivo. The note with it: 300 mg/kg, intravenous (tail), physiological saline. On the procedure: A solution of the compound of Example 58 in physiological saline was intravenously administered to a group consisting of 5 ddY strain male mice (average body weight: 27.5 g) each, in the tails, whereby the acute toxicity of the compound was investigated. As a result, no mouse died at a dose of the test compound of 300 mg/kg.
With `N=C(N)c1ccc(OCCCN2CCN(C(CC(=O)O)c3cccnc3)C(=O)C2=O)cc1` (stereo not shown) [Example 58, 3-[4-[3-(4-Amidinophenoxy)propyl]-2,3-dioxopiperazin-1-yl]-3-(pyridin-3-yl)propionic acid], the “acute toxicity (mortality)” value is on record as “no mouse died”.

Another data set relates to human platelet aggregation. Nature of the data set: Inhibitory effect on human platelet aggregation (ADP-induced, platelet-rich plasma, aggreometer). The note with it: 5×10^8 platelets/ml, ADP final concentration 3 μM, 37° C., 3 min preincubation, read-out: 50% inhibitory concentration (IC50). Type of data set: cell-based. The procedure:
A mixture of blood collected from a human elbow vein and a 3.8% sodium citrate solution in the ratio of 9:1 (v/v) was centrifuged at room temperature to obtain platelet-rich plasma and platelet-poor plasma. Then, the platelet-rich plasma was diluted with the platelet-poor plasma to adjust the number of platelets to 5×10^8 platelets/ml. […] After 3 minutes, 18.75 μl of adenosine 5'-diphosphate (ADP) (final concentration: 3 μM) was added to the mixture and a change in the intensity of transmitted light caused by the aggregation was recorded with the lapse of time with an aggreometer.
On to `N=C(N)c1ccc(C(=O)NCCN2CCN(CCC(=O)O)C(=O)C2=O)cc1` [Example 99], for which the IC50 was 2100 nM.

On to `N=C(N)c1ccc(OCCCN2CCN(CC(C(=O)O)c3ccccc3)C(=O)C2=O)cc1` (stereo not shown) [Example 87, 3-[4-[3-(4-Amidinophenoxy)propyl]-2,3-dioxopiperazin-1-yl]-2-phenylpropionic acid], for which the IC50 turned out to be 530 nM. Regarding `N=C(N)c1ccc(S(=O)(=O)NCCCN2CCN(CC(=O)O)C(=O)C2=O)cc1` [105(2), [4-[3-(4-Amidinobenzenesulfonylamino)propyl]-2,3-dioxopiperazin-1-yl]aceticacid], the IC50 stood at 950 nM.

In the case of `N=C(N)c1ccc(OCCCN2CCN(C(CC(=O)O)C(=O)O)C(=O)C2=O)cc1` (stereo not shown) [Example 62, 2-[4-[3-(4-Amidinophenoxy)propyl]-2,3-dioxopiperazin-1-yl]succinic acid], the IC50 was 3200 nM. As for `N=C(N)c1ccc(OCCCN2CCN(C(CC(=O)O)c3ccc(F)cc3)C(=O)C2=O)cc1` (stereo not shown) [Example 65], the IC50 turned out to be 290 nM. Regarding `N=C(N)c1ccc(OCCCN2CCN(C(CC(=O)O)c3cccs3)C(=O)C2=O)cc1` (stereo not shown) [Example 61], the IC50 is 120 nM. Same read-out and setting: with `COc1ccc(C(CC(=O)O)N2CCN(CCCOc3ccc(C(=N)N)cc3)C(=O)C2=O)cc1` (stereo not shown) [Example 64] the figure was 160 nM; with `N=C(N)c1ccc(OCCCN2CCN(CC(=O)O)C(=O)C2=O)cc1` [Example 10, [4-[3-(4-Amidinophenoxy)propyl]-2,3-dioxopiperazin-1yl]acetic acid hydrochloride], 5000 nM; with `N=C(N)c1ccc(C(=O)NCCN2CCN(CC(=O)O)C(=O)C2=O)cc1` [Example 103, [4-[2-(4-Amidinobenzoylamino)ethyl]-2,3-dioxopiperazin-1-yl]acetic acid], 1900 nM. As for `N=C(N)c1ccc(OCCCN2CCN(C(CC(=O)O)c3cccnc3)C(=O)C2=O)cc1` (stereo not shown) [Example 58, 3-[4-[3-(4-Amidinophenoxy)propyl]-2,3-dioxopiperazin-1-yl]-3-(pyridin-3-yl)propionic acid], the IC50 was 54 nM. On to `N=C(N)c1ccc(OCCCCN2CCN(C(C(=O)O)c3ccccc3)C(=O)C2=O)cc1` (stereo not drawn) [Example 19, α-[4-[4-(4-Amidinophenoxy)butyl]-2,3-dioxopiperazin-1yl]-α-phenylacetic acid], for which the IC50 came out at 140 nM. On to `COc1cccc(C(CC(=O)O)N2CCN(CCCOc3ccc(C(=N)N)cc3)C(=O)C2=O)c1` (stereo not shown) [Example 78], for which the IC50 came out at 150 nM. Turning to `N=C(N)c1ccc(OCCCN2CCN(C(CC(=O)O)c3ccc4c(c3)OCO4)C(=O)C2=O)cc1` (stereo not shown) [Example 66, 3-[4-[3-(4-Amidinophenoxy)propyl]-2,3-dioxopiperazin-1-yl]-3-(1,3-benzodioxol-5-yl)propionic acid], the IC50 came out at 140 nM. On the same count and under the same terms, the same measure for `N=C(N)c1ccc(OCCCN2CCN(C(CC(=O)O)C3CC3)C(=O)C2=O)cc1` (stereo not shown) [Example 83, 3-[4-[3-(4-Amidinophenoxy)propyl]-2,3-dioxopiperazin-1-yl]-3-(cyclopropyl)propionic acid]: 1100 nM; for `N=C(N)c1ccc(OCCCCCN2CCN(CC(=O)O)C(=O)C2=O)cc1` [Example 13]: 10000 nM; for `N=C(N)c1ccc(OCCCN2CCN(C(CC(=O)O)c3ccco3)C(=O)C2=O)cc1` (stereo not shown) [Example 67]: 570 nM. Consider `N=C(N)c1ccc(C(=O)NCCN2CCN(C(CC(=O)O)c3cccnc3)C(=O)C2=O)cc1` (stereo not shown) [Example 97, 3-[4-[2-(4-Amidinobenzoyl)aminoethyl]-2,3-dioxopiperazin-1yl]-3-(pyridin-3-yl)propionic acid], for which the IC50 was 560 nM. Same read-out and setting: with `N=C(N)c1ccc(OCCCCN2CCN(C(CC(=O)O)c3cccnc3)C(=O)C2=O)cc1` (stereo not shown) [Example 79, 3-[4-[4-(4-Amidinophenoxy)butyl]-2,3-dioxopiperazin-1-yl]-3-(pyridin-3-yl)propionic acid] the figure was 3500 nM. As for `N=C(N)c1ccc(OCCCN2CCN(CC(Cc3ccc4c(c3)OCO4)C(=O)O)C(=O)C2=O)cc1` (stereo not shown) [Example 20, 2-[(1,3-Benzodioxol-5-yl)methyl]-3-[4-[3-(4-amidinophenoxy)propyl]-2,3-dioxopiperazin-1-yl]propionic acid], the IC50 is 900 nM. Same read-out and setting: with `N=C(N)c1ccc(OCCCN2CCN(C(CC(=O)O)c3cccc4ccccc34)C(=O)C2=O)cc1` (stereo not shown) [Example 85] the figure was 290 nM; with `N=C(N)c1ccc(OCCCn2ccn(CC(=O)O)c(=O)c2=O)cc1` [Example 17, [4-[3-(4-Amidinophenoxy)propyl]-1,2,3,4-tetrahydro-2,3-dioxopyrazin-1-yl]acetic acid hydrochloride], 42000 nM. `N=C(N)c1ccc(OCCCN2CCN(CCC(=O)O)C(=O)C2=O)cc1` [Example 15]: the IC50 amounted to 4700 nM. The same measure, in the same setting: with `N=C(N)c1ccc(C(=O)NCCCN2CCN(CC(Cc3ccc4c(c3)OCO4)C(=O)O)C(=O)C2=O)cc1` (stereo not shown) [Example 102, 3-[4-[3-(4-Amidinobenzoylamino)propyl]-2,3-dioxopiperazin-1-yl]-2-[(1,3-benzodioxol-5-yl)methyl]-propionic acid] the figure was 500 nM; with `CC(C)(C)OC(=O)CN1CCN(CCCC(=O)Nc2ccc(C(=N)NC(=O)OCc3ccccc3)cc2)C(=O)C1=O` [Example 106, tert-Butyl [4-[4-(4-benzyloxycarbonylamidino-phenylamino) -4-oxobutyl]-2,3-dioxopiperazin-1-yl]acetate], 1000 nM; with `N=C(N)c1ccc(C(=O)NCCCN2CCN(CC(=O)O)C(=O)C2=O)cc1` [Example 104, [4-[3-(4-Amidinobenzoylamino)propyl)-2,3-dioxopiperazin-1-yl]acetic acid], 800 nM. With `CCCCC(CC(=O)O)N1CCN(CCCOc2ccc(C(=N)N)cc2)C(=O)C1=O` (stereo not shown) [Example 82, 3-[4-[3-(4-Amidinophenoxy)propyl]-2,3-dioxopiperazin-1-yl]-3-(butyl)propionic acid], the IC50 stood at 480 nM.

Take `CC(CC(=O)O)N1CCN(CCCOc2ccc(C(=N)N)cc2)C(=O)C1=O` (stereo not shown) [Example 59, 3-[4-[3-(4-Amidinophenoxy)propyl]-2,3-dioxopiperazin-1-yl]-3-methylpropionic acid]: the IC50 amounted to 370 nM. On the same count and under the same terms, with `N=C(N)c1ccc(OCCN2CCN(CCCC(=O)O)C(=O)C2=O)cc1` [Example 16] the figure was 2200 nM.

With `CCOC(=O)CC(c1cccnc1)N1CCN(CCCOc2ccc(C(=N)N)cc2)C(=O)C1=O` (stereo not shown) [Example 88, Ethyl 3-[4-[3-(4-amidinophenoxy)propyl]-2,3-dioxopiperazin-1yl]-3-(pyridin-3-yl)propionate hydrochloride], the IC50 stood at 3400 nM.

For `N=C(N)c1ccc(OCCCN2CCN(C(CC(=O)O)c3ccc(F)cc3F)C(=O)C2=O)cc1` (stereo not shown) [Example 77], the IC50 was 140 nM.
